In the supplement of paper PMC10331698:
± gives the standard deviation of the averaged measurements.

Legend:
Assay in all cases: level (log10 ratio to DMSO vehicle control); higher = higher biomarker level / cell amount than vehicle control
[1] = compound: CCOC(=O)CC(=O)C(F)(F)C(F)(F)F [Ethyl pentafluoropropionyl acetate] (in DMSO)
Description: (§1)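 BioMAP Diversity Plus panel of 12 human primary cell co-culture systems (3C, 4H, LPS, SAg, BT, BF4T, BE3C, CASM3C, HDF3CGF, KF3CT, MyoF, Mphg). Compounds were added 1 h before stimulation and left for 24 h (MyoF 48 h; BT 72 h for soluble read-outs or 6 d for IgG). Biomarkers were read by ELISA, cytotoxicity by SRB, PBMC viability and proliferation by Alamar Blue. Each well value was divided by the mean of 8 DMSO control wells on the same plate and log10 transformed; duplicate blinded samples were tested at 4 concentrations.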

[2] = compound: O=C(O)C(F)(F)C(F)(F)C(F)(F)OC(F)(F)F [Perfluoro(4-methoxybutanoic) acid] (in DMSO)
Description: as §1

[3] = compound: O=C(O)C(F)(OC(F)(F)C(F)(F)C(F)(F)F)C(F)(F)F [Ammonium perfluoro-2-methyl-3-oxahexanoate] (in Water)
Description: as §1

[4] = compound: O=C(O)CCC(F)(C(F)(F)F)C(F)(F)F [4,4-bis(Trifluoromethyl)-4-fluoropropanoic acid] (in DMSO)
Description: as §1

[5] = compound: O=S(=O)(O)C(F)(F)C(F)(F)OC(F)(F)C(F)(F)F [Perfluoro(2-ethoxyethane)sulfonic acid] (in DMSO)
Description: as §1

[6] = compound: O=S(=O)(O)CCC(F)(F)C(F)(F)C(F)(F)C(F)(F)C(F)(F)C(F)(F)C(F)(F)C(F)(F)F [8:2 Fluorotelomer sulfonic acid] (in DMSO)
Description: as §1

Test System	level (log10) ([1]; 6700 nM)	level (log10) ([1]; 20000 nM)	level (log10) ([1]; 60000 nM)	level (log10) ([2]; 6700 nM)	level (log10) ([2]; 20000 nM)	level (log10) ([2]; 60000 nM)	level (log10) ([3]; 6700 nM)	level (log10) ([3]; 20000 nM)	level (log10) ([3]; 60000 nM)	level (log10) ([4]; 6700 nM)	level (log10) ([4]; 20000 nM)	level (log10) ([4]; 60000 nM)	level (log10) ([5]; 6700 nM)	level (log10) ([5]; 20000 nM)	level (log10) ([5]; 60000 nM)	level (log10) ([6]; 6700 nM)	level (log10) ([6]; 20000 nM)	level (log10) ([6]; 60000 nM)
lMphg:IL-1alpha	-0.0145 ± 0.011	-0.016 ± 0.024	0.0045 ± 0.0092	-0.051 ± 0.018	-0.0345 ± 0.029	0.027 ± 0.068	0.0825 ± 0.059	0.079 ± 0.055	0.11 ± 0.021	0.0125 ± 0.07	0.022 ± 0.011	0.0125 ± 0.026	0.006 ± 0.011	0.012 ± 0.0071	0.0335 ± 0.026	-0.019 ± 0.014	-0.011 ± 0.028	-0.035 ± 0.05
lMphg:M-CSF	-0.01 ± 0.0099	-0.001 ± 0.028	0.005 ± 0.0014	-0.0095 ± 0.0078	-0.019 ± 0.011	-0.0115 ± 0.0064	-0.084 ± 0.021	-0.0725 ± 0.00071	-0.0815 ± 0.011	-0.0115 ± 0.043	-0.0135 ± 0.032	-0.0165 ± 0.019	0.0025 ± 0.0092	-0.011 ± 0.0028	-0.011 ± 0.0071	-0.0075 ± 0.033	-0.014 ± 0.013	0.012
lMphg:SRB	0.005 ± 0.0071	-0.0005 ± 0.0078	0.0055 ± 0.0035	-0.008 ± 0.0099	-0.0135 ± 0.0035	-0.0055 ± 0.016	-0.043 ± 0.0014	-0.0435 ± 0.00071	-0.0395 ± 0.0035	-0.0025 ± 0.0064	-0.0005 ± 0.0064	0.0065 ± 0.0021	-0.001 ± 0.0014	0 ± 0.013	-0.021 ± 0.0071	-0.006 ± 0.02	-0.013 ± 0.017	-0.029 ± 0.0057
lMphg:SRB-Mphg	-0.0015 ± 0.018	-0.0055 ± 0.005	-0.012 ± 0.02	-0.013 ± 0.02	0.0125 ± 0.012	0.0115 ± 0.0021	-0.0535 ± 0.036	-0.046 ± 0.041	-0.054 ± 0.041	0.0125 ± 0.0021	-0.0025 ± 0.012	0.002 ± 0.016	0.0125 ± 0.005	0.0155 ± 0.015	-0.0045 ± 0.025	0.003 ± 0.0028	-0.012 ± 0.014	-0.027 ± 0.013
lMphg:sIL-10	-0.0405 ± 0.012	-0.0435 ± 0.035	-0.0305 ± 0.022	0 ± 0.03	-0.017 ± 0.0014	-0.0345 ± 0.023	-0.36 ± 0.035	-0.328 ± 0.018	-0.467 ± 0.13	-0.0325 ± 0.005	-0.062 ± 0.075	-0.003 ± 0.12	0.0105 ± 0.13	-0.0625 ± 0.005	-0.818 ± 0.028	-0.078 ± 0.024	-0.216 ± 0.0057	-0.6535 ± 0.0064
